Laboratory results published in US5028601A, “Cephalosporin compounds and antibacterial agents” (Meiji Saika Kaisha, Ltd., priority 1987, dated 1991).
Where two headings read alike, the source gives them in different places.

Key:
Type in all cases: cell-based
Parameters in all cases: unit not given here
[1] = tested on: Staphylococcus aureus Smith (1); assay: Minimum growth inhibitory concentration, Staphylococcus aureus Smith (1)
[2] = tested on: Pseudomonase cepacia M-0527; assay: Minimum growth inhibitory concentration, Pseudomonase cepacia M-0527
[3] = tested on: Citrobacter freundii GN-346; assay: Minimum growth inhibitory concentration, Citrobacter freundii GN-346
Escherichia coli No. 29 = assay: Minimum growth inhibitory concentration, Escherichia coli No. 29
Escherichia coli No. 255 = assay: Minimum growth inhibitory concentration, Escherichia coli No. 255
[4] = tested on: Klebsiella pneumoniae GN-69; assay: Minimum growth inhibitory concentration, Klebsiella pneumoniae GN-69
[5] = tested on: Pseudomonas aeruginosa IAM-1007; assay: Minimum growth inhibitory concentration, Pseudomonas aeruginosa IAM-1007
[6] = tested on: Pseudomonas aeruginosa E-2; assay: Minimum growth inhibitory concentration, Pseudomonas aeruginosa E-2
[7] = tested on: Serratia marcescens No. 1; assay: Minimum growth inhibitory concentration, Serratia marcescens No. 1
[8] = tested on: Pseudomonas aeruginosa M-0148; assay: Minimum growth inhibitory concentration, Pseudomonas aeruginosa M-0148
[9] = tested on: Enterobacter cloacae GN-471; assay: Minimum growth inhibitory concentration, Enterobacter cloacae GN-471
Proteus vulgaris GN-76 = assay: Minimum growth inhibitory concentration, Proteus vulgaris GN-76
[10] = tested on: Bacillus subtilis ATCC6633; assay: Minimum growth inhibitory concentration, Bacillus subtilis ATCC6633
[11] = tested on: Staphylococcus aureus 209P JC-1; assay: Minimum growth inhibitory concentration, Staphylococcus aureus 209P JC-1
Proteus rettgeri GN-624 = assay: Minimum growth inhibitory concentration, Proteus rettgeri GN-624
[12] = Staphylococcus aureus Smith (1)
[13] = Pseudomonas aeruginosa IAM-1007
[14] = Staphylococcus aureus 209P JC-1

| SMILES | Minimum Growth Inhibitory Concentration [1, 12] | Minimum Growth Inhibitory Concentration [2] | Minimum Growth Inhibitory Concentration ([3]; Citrobacter freundii GN-346) | Minimum Growth Inhibitory Concentration (Escherichia coli No. 29) | Minimum Growth Inhibitory Concentration (Escherichia coli No. 255) | Minimum Growth Inhibitory Concentration ([4]; Klebsiella pneumoniae GN-69) | Minimum Growth Inhibitory Concentration [5, 13] | Minimum Growth Inhibitory Concentration ([6]; Pseudomonas aeruginosa E-2) | Minimum Growth Inhibitory Concentration ([7]; Serratia marcescens No. 1) | Minimum Growth Inhibitory Concentration ([8]; Pseudomonas aeruginosa M-0148) | Minimum Growth Inhibitory Concentration ([9]; Enterobacter cloacae GN-471) | Minimum Growth Inhibitory Concentration (Proteus vulgaris GN-76; Proteus vulgaris GN-76) | Minimum Growth Inhibitory Concentration ([10]; Bacillus subtilis ATCC6633) | Minimum Growth Inhibitory Concentration [11, 14] | Minimum Growth Inhibitory Concentration (Proteus rettgeri GN-624; Proteus rettgeri GN-624) | other results |
| --- | --- | --- | --- | --- | --- | --- | --- | --- | --- | --- | --- | --- | --- | --- | --- | --- |
| Nc1nc(/C(=N/OCc2cc(=O)c(O)cn2O)C(=O)N[C@@H]2C(=O)N3C(C(=O)[O-])=C(C[n+]4ccccc4)CS[C@H]23)cs1 [Example 14, (6R,7R)-7-[(Z)-2-(2-Aminothiazole-4-yl)-2-(1,5-dihydroxy-4-pyridone-2-yl)methoxyiminoacetamido]-3-pyridiniummethyl-ceph-3-em-4-carboxylate] | 6.25 | < 0.025 | 6.25 | 0.10 | 0.78 | 0.10 | 0.39 | 0.10 | 0.10 | 0.78 | 3.13 | 0.20 | 12.5 | 6.25 | 3.13 |  |
| C[n+]1ccc(SCC2=C(C(=O)[O-])N3C(=O)[C@@H](NC(=O)/C(=N\OCc4cc(=O)c(O)cn4O)c4csc(N)n4)[C@H]3SC2)cc1 [Example 1, (6R,7R)-7-[(Z)-2-(2-Aminothiazole-4-yl)-2-(1,5-dihydroxy-4-pyridone-2-yl)methoxyiminoacetamido]-3-(1-methylpyridinium-4-yl)thiomethyl-ceph-3em-4-carboxylate] | 3.13 | < 0.025 | 12.5 | 0.05 | 0.10 | < 0.025 | 0.10 | 0.05 | 0.05 | 0.20 | 1.56 | 0.05 | 12.5 | 3.13 | 0.10 |  |
| C[n+]1ccc(SCC2=C(C(=O)[O-])N3C(=O)[C@@H](NC(=O)/C(=N\OCc4cc(=O)c(O)cn4O)c4csc(N)n4)[C@H]3SC2)c2c1CCC2 [Example 4] | 6.25 | < 0.025 | 1.56 | < 0.025 | 0.20 | 0.10 | 0.10 | 0.10 | 0.10 | 0.10 | 0.78 | < 0.025 | 12.5 | 3.13 | 0.20 |  |
| CC(C)(O/N=C(\C(=O)N[C@@H]1C(=O)N2C(C(=O)[O-])=C(C[n+]3ccccc3)CS[C@H]12)c1csc(N)n1)C(=O)O [B, Ceftazidime, reference compound] |  | 0.78 |  | 0.20 |  |  |  |  |  |  |  |  |  |  |  | Minimum Growth Inhibitory Concentration [1]: 3.13; Minimum Growth Inhibitory Concentration [3]: 50; Minimum Growth Inhibitory Concentration [4]: 0.10; Minimum Growth Inhibitory Concentration [5]: 1.56; Minimum Growth Inhibitory Concentration [6]: 1.56; Minimum Growth Inhibitory Concentration [7]: < 0.025; Minimum Growth Inhibitory Concentration [8]: 3.13; Minimum Growth Inhibitory Concentration [9]: 3.13; Minimum Growth Inhibitory Concentration (Proteus vulgaris GN-76): 0.05; Minimum Growth Inhibitory Concentration [10]: 6.25; Minimum Growth Inhibitory Concentration [11]: 3.13; Minimum Growth Inhibitory Concentration (Proteus rettgeri GN-624): 0.39 |
| Cn1c(SCC2=C(C(=O)O)N3C(=O)[C@@H](NC(=O)/C(=N\OCc4cc(=O)c(O)cn4O)c4csc(N)n4)[C@H]3SC2)nnc(O)c1=O [Example 9, (6R,7R)-7-[(Z)-2-(2-Aminothiazole-4-yl)-2-(1,5-dihydroxy-4-pyridone-2-yl)methoxyiminoacetamido]-3-(4,5-dihydro-4-methyl 5-oxo-6-hydroxy-1,2,4-triazine-3-yl)thiomethyl-ceph-3-em-4-carboxylic acid] | 12.5 | < 0.025 | 3.13 | < 0.025 | 0.20 | < 0.025 | 0.39 | 0.05 | 0.05 | 0.39 | 3.13 | < 0.025 | 12.5 | 6.25 | 0.20 |  |
| Nc1nc(/C(=N/OCc2cc(=O)c(O)cn2O)C(=O)N[C@@H]2C(=O)N3C(C(=O)[O-])=C(CSc4cc[n+](CCO)cc4)CS[C@H]23)cs1 [Example 3, (6R,7R)-7-[(Z)-2-(2 Aminothiazole-4-yl)-2-(1,5-dihydroxy-4-pyridone-2-yl)methoxyiminoacetamido]-3-[1-(2-hydroxyethyl)pyridinium-4-yl]thiomethyl-ceph-3-em-4-carboxylate] | 6.25 | < 0.025 | 6.25 | 0.05 | 0.20 | 0.05 | 0.10 | 0.05 | 0.10 | 0.20 | 1.56 | 0.05 | 12.5 | 3.13 | 0.10 |  |
| Nc1nc(/C(=N/OCc2cc(=O)c(O)c[nH]2)C(=O)N[C@@H]2C(=O)N3C(C(=O)[O-])=C(C[n+]4ccccc4)CS[C@H]23)cs1 [A, reference compound] | 3.13 | 0.39 | 25 | 0.20 | 1.56 | 0.20 | 3.13 | 3.13 | 0.20 | 25 | 3.13 | 0.20 | 1.56 | 3.13 | 12.5 |  |
